Molecular target: recombinant GST-p110γ (human PI3Kγ residues 38-1102) (Homo sapiens, UniProt P48736)
Test: in vitro kinase assay (Scintillation Proximity Assay), phosphate transfer from ATP to phosphatidylinositol
Details: 12.5 μM ATP in assay mix, 60 minutes at room temperature
Experimental: An in vitro kinase assay was established that measures the transfer of the terminal phosphate of adenosine triphosphate to phosphatidylinositol. The kinase reaction is performed in a white 96 well microtitre plate as a Scintillation Proximity Assay. […] The reaction is started by the addition of 20 μl of enzyme mix (40 mM Tris, 200 mM NaCl, 2 mM EGTA containing recombinant GST-p110γ).

Sequence of recombinant GST-p110γ (human PI3Kγ residues 38-1102) (P48736 38-1102): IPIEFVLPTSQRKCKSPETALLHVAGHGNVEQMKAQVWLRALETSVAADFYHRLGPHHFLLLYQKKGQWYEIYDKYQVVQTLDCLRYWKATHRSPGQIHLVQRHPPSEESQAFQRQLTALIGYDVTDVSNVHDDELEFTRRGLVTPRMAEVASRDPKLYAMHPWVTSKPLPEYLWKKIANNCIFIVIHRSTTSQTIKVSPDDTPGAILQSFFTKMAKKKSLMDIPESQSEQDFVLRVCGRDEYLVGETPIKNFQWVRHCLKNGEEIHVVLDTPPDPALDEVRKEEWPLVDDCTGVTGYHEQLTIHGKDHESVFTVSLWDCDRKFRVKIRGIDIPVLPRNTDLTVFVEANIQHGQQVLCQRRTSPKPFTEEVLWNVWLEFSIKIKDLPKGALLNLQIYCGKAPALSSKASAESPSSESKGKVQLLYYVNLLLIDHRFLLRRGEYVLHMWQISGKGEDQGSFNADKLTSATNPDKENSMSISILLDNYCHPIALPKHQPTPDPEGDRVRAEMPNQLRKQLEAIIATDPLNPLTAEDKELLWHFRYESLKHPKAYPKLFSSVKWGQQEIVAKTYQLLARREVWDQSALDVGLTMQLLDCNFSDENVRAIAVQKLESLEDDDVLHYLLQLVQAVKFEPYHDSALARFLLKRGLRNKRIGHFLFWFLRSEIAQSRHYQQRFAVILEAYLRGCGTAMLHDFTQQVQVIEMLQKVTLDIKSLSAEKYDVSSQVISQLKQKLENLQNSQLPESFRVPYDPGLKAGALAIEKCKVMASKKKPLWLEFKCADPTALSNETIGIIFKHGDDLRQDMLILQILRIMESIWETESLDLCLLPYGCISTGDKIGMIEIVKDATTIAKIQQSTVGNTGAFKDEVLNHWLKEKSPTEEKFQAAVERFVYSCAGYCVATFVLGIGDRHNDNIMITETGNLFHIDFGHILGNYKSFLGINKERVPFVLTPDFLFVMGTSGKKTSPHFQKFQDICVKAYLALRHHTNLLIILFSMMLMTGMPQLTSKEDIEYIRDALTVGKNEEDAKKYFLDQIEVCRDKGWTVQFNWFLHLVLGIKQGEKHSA

IC50: 110 nM
SMILES: CC(=O)c1ccc(-c2sc(NC(=O)NCCc3cn(CCF)cn3)nc2C)cc1 [Example 5]

Reference: US7754746B2, “Organic compounds” (Novartis AG, priority 2005, dated 2010)
